Patent publication US20160145247A1, “Aminomethyl-Biaryl Derivatives Complement Factor D inhibitors and uses thereof” (NOVARTIS AG, priority 2013, published 2016)

Target: T1, factor D (Homo sapiens, UniProt P00746)
T1 construct: made in house; host or cells: E. coli
Assay: factor D inhibition assay of Biological Example 2
Format: biochemical

T1 sequence (P00746 26-253): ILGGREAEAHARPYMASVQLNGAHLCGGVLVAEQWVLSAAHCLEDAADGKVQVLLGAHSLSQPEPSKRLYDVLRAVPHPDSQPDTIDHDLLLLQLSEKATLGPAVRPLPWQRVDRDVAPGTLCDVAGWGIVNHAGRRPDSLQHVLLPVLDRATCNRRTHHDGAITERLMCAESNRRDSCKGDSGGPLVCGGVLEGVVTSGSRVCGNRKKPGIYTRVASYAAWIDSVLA

| Compound | IC50 [nM] |
| --- | --- |
| NC(=O)C(N)c1cccc(-c2cccc(COc3ccccc3CC(=O)O)c2)c1 (racemic) [Example 189, (±)-2-(2-((3′-(1,2-Diamino-2-oxoethyl)-[1,1′-biphenyl]-3-yl)methoxy)phenyl)acetic acid] | 1110 |
| COCc1cc(COc2ccccc2CC(=O)O)cc(-c2cccc(C(N)CF)c2F)c1 (racemic) [Example 205-B, (±)-2-(2-((3′-(1-Amino-2-fluoroethyl)-2′-fluoro-5-(methoxymethyl)-[1,1′-biphenyl]-3-yl)methoxy)phenyl)acetic acid] | 10 |
| NC(CF)c1cccc(-c2cc(COc3ccccc3CC(=O)O)cc(OCC3CC3)c2)c1F (racemic) [Example 206, (±)-2-(2-((3′-(1-Amino-2-fluoroethyl)-5-(cyclopropylmethoxy)-2′-fluoro-[1,1′-biphenyl]-3-yl)methoxy)phenyl)acetic acid] | 5 |
| NCc1cccc(-c2cc(COc3ccccc3CC(=O)O)cc(C(N)C(F)(F)F)c2)c1 (racemic) [Example 207-B, (±)-2-(2-((5-(1-Amino-2,2,2-trifluoroethyl)-3′-(aminomethyl)-[1,1′-biphenyl]-3-yl)methoxy)phenyl)acetic acid] | 5 |
| CC(O)c1cc(COc2ccccc2CC(=O)O)cc(-c2cccc([C@H](N)CO)c2)c1 (single isomer, unassigned) [116-E b) (tr = 3.8 min)] | 11 |
| CC(O)c1cc(COc2ccccc2CC(=O)O)cc(-c2cccc([C@H](N)CO)c2)c1 (single isomer, unassigned) [116-E b) (tr = 5.7 min)] | 13 |
| N[C@H](CO)c1cccc(-c2cc(COc3ccccc3CC(=O)O)cc(C(O)C(F)(F)F)c2)c1 (single isomer, unassigned) [116-G b) (tr = 2.1 min)] | 11 |
| N[C@H](CO)c1cccc(-c2cc(COc3ccccc3CC(=O)O)cc(C(O)C(F)(F)F)c2)c1 (single isomer, unassigned) [116-G b) (tr = 3.4 min)] | 9 |
| C[C@@H](N)c1cccc(-c2cc(COc3ccccc3CC(=O)O)cc(C(O)C(F)(F)F)c2)c1 (single isomer, unassigned) [116-H b) (tr = 3.0 min)] | 10 |
| C[C@@H](N)c1cccc(-c2cc(COc3ccccc3CC(=O)O)cc(C(O)C(F)(F)F)c2)c1 (single isomer, unassigned) [116-H b) (tr = 4.6 min)] | 15 |
| N[C@H](CO)c1cccc(-c2cc(COc3ccccc3CC(=O)O)cc(C(O)C3CCCCC3)c2)c1 (single isomer, unassigned) [116-I b) (tr = 4.0 min)] | 26 |
| N[C@H](CO)c1cccc(-c2cc(COc3ccccc3CC(=O)O)cc(C(O)C3CCCCC3)c2)c1 (single isomer, unassigned) [116-I b) (tr = 6.3 min)] | 24 |
| NCc1cccc(-c2ccc3c(c2)C(Oc2ccccc2CC(=O)O)CCC3)c1 (single isomer, unassigned) [175 b) (tr = 4.1 min), (+) or (−)-(2-((7-(3-(aminomethyl)phenyl)-1,2,3,4-tetrahydronaphthalen-1-yl)oxy)phenyl)acetic acid] | 3 |
| NCc1cccc(-c2ccc3c(c2)C(Oc2ccccc2CC(=O)O)CCC3)c1 (single isomer, unassigned) [175 b) (tr = 9.5 min), (−) or (+)-(2-((7-(3-(aminomethyl)phenyl)-1,2,3,4-tetrahydronaphthalen-1-yl)oxy)phenyl)acetic acid] | 250 |
| NCc1cccc(-c2ccc3c(c2)C(Oc2ccccc2CC(=O)O)CCO3)c1 (single isomer, unassigned) [177 b) (tr = 3.2 min), (+) or (−)-2-(2-((6-(3-(aminomethyl)phenyl)chroman-4-yl)oxy)phenyl)acetic acid] | 4 |
| NCc1cccc(-c2ccc3c(c2)C(Oc2ccccc2CC(=O)O)CCO3)c1 (single isomer, unassigned) [177 b) (tr = 8.8 min), (−) or (+)-2-(2-((6-(3-(aminomethyl)phenyl)chroman-4-yl)oxy)phenyl)acetic acid] | 180 |
| NC(CF)c1cccc(-c2cc(COc3ccccc3CC(=O)O)cc(CN3CCOCC3)c2)c1F (single isomer, unassigned) [Example 217-D, (+) or (−)-2-(2-((3′-(1-Amino-2-fluoroethyl)-2′-fluoro-5-(morpholinomethyl)-[1,1′-biphenyl]-3-yl)methoxy)phenyl)acetic acid] | 63 |
| NCc1cccc(-c2cccc(COc3ccccc3C(NC(=O)C3CC3c3ccccc3)C(=O)O)c2)c1 (single isomer, unassigned) [Example 297-B, 2-(2-((3′-(aminomethyl)-[1,1′-biphenyl]-3-yl)methoxy)phenyl)-2-(2-phenylcyclopropanecarboxamido)acetic acid] | 6 |
| NC(CF)c1cccc(-c2cccc(COc3ccccc3CC(=O)O)c2)c1 (single isomer, unassigned; (+)) [Example 190-B (+), (+)-2-(2-((3′-(1-amino-2-fluoroethyl)-[1, 1′-biphenyl]-3-yl)methoxy)phenyl)acetic acid] | 9 |
| NC(CF)c1cccc(-c2cc(COc3ccccc3CC(=O)O)cc(OC[C@H]3CCCO3)c2)c1F (single isomer, unassigned; (+)) [Example 212-B] | 6 |
| NC(CF)c1cccc(-c2cccc(COc3ccccc3CC(=O)O)c2)c1 (single isomer, unassigned; (-)) [Example 190-B (−), (−)-2-(2-((3′-(1-amino-2-fluoroethyl)-[1, 1′-biphenyl]-3-yl)methoxy)phenyl)acetic acid] | 213 |

| Compound | IC50 [nM] |
| --- | --- |
| NC(CF)c1cccc(-c2cc(COc3ccccc3CC(=O)O)cc(OC[C@H]3CCCO3)c2)c1F (single isomer, unassigned; (-)) [Example 212-A] | 6 |
| NCc1cccc(-c2cc(N)c(F)c(COc3ccccc3CC(=O)O)c2)c1 [154-C a), 2-(2-((5-Amino-3′-(aminomethyl)-4-fluoro-[1,1′-biphenyl]-3-yl)methoxy)phenyl)acetic acid] | 3 |
| Nc1cc(-c2cccc([C@H](N)CO)c2)cc(COc2ccccc2CC(=O)O)c1F [155 a), (S)-2-(2-((5-Amino-3′-(1-amino-2-hydroxyethyl)-4-fluoro-[1,1′-biphenyl]-3-yl)methoxy)phenyl)acetic acid] | 3 |
| N[C@H](CO)c1cccc(-c2cc(COc3ccccc3CC(=O)O)c(F)c(NCC3CCCO3)c2)c1 (stereo partly drawn) [155 b), 2-(2-((3′-((S)-1-Amino-2-hydroxyethyl)-4-fluoro-5-(((tetrahydrofuran-2-yl)methyl)amino)-[1,1′-biphenyl]-3-yl)methoxy)phenyl)acetic acid] | 4 |
| NCc1cccc(-c2cccc(C(=O)Nc3ccccc3CC(N)=O)c2)c1 [Example 3-B, N-(2-(2-Amino-2-oxoethyl)phenyl)-3′-(aminomethyl)-[1,1′-biphenyl]-3-carboxamide] | 80200 |
| COC(=O)Cc1ccccc1NC(=O)c1cccc(-c2cc(CN)ccc2F)c1 [Example 4-A, Methyl 2-(2-(5′-(aminomethyl)-2′-fluoro-[1,1′-biphenyl]-3-ylcarboxamido)phenyl)acetate] | 33100 |
| NCc1ccc(F)c(-c2cccc(C(=O)Nc3ccccc3CC(=O)O)c2)c1 [Example 4-B, 2-(2-(5′-(Aminomethyl)-2′-fluoro-[1,1′-biphenyl]-3-ylcarboxamido)phenyl)acetic acid] | 4600 |
| CC(=O)Nc1cc(C(=O)Nc2ccccc2CC(=O)O)cc(-c2cccc(CN)c2)c1 [Example 5, 2-(2-(5-Acetamido-3′-(aminomethyl)-[1,1′-biphenyl]-3-ylcarboxamido)phenyl)acetic acid] | 45 |
| NCc1cc(F)cc(-c2cccc(C(=O)Nc3ccccc3CC(=O)O)c2)c1 [Example 6-B, 2-(2-(3′-(Aminomethyl)-5′-fluoro-[1,1′-biphenyl]-3-ylcarboxamido)phenyl)acetic acid] | 106 |
| CNC(=O)c1cc(C(=O)Nc2ccccc2CC(=O)O)cc(-c2cccc(CN)c2)c1 [Example 7-D, 2-(2-(3′-(Aminomethyl)-5-(methylcarbamoyl)-[1,1′-biphenyl]-3-ylcarboxamido)phenyl)acetic acid] | 244 |
| COC(=O)Cc1ccccc1NC(=O)c1ccc(OC)c(-c2cccc(CN)c2)c1 [Example 8-A, Methyl 2-(2-(3′-(aminomethyl)-6-methoxy-[1,1′-biphenyl]-3-ylcarboxamido)phenyl)acetate] | 5050 |
| COc1ccc(C(=O)Nc2ccccc2CC(=O)O)cc1-c1cccc(CN)c1 [Example 8-B, 2-(2-(3′-(Aminomethyl)-6-methoxy-[1,1′-biphenyl]-3-ylcarboxamido)phenyl)acetic acid] | 353 |
| COc1ccc(C(=O)Nc2ccccc2CC(=O)O)cc1-c1cc(F)cc(CN)c1 [Example 9] | 71 |
| N=C(N)c1cccc(-c2cccc(C(=O)Nc3ccccc3CC(=O)O)c2)c1 [Example 10-B, 2-(2-(3′-Carbamimidoyl-[1,1′-biphenyl]-3-ylcarboxamido)phenyl)acetic acid] | 396 |
| NCc1cc(F)cc(-c2cc(C(=O)Nc3ccccc3CC(=O)O)cc(-c3cnoc3)c2)c1 [Example 11-D, 2-(2-(3′-(Aminomethyl)-5′-fluoro-5-(isoxazol-4-yl)-[1,1′-biphenyl]-3-ylcarboxamido)phenyl)acetic acid] | 17 |
| NCc1cc(F)cc(-c2cc(Br)cc(C(=O)Nc3ccccc3CC(=O)O)c2)c1 [Example 12, 2-(2-(3′-(Aminomethyl)-5-bromo-5′-fluoro-[1,1′-biphenyl]-3-ylcarboxamido)phenyl)acetic acid] | 80 |
| NCc1cc(F)cc(-c2cc(Nc3ccccc3)cc(C(=O)Nc3ccccc3CC(=O)O)c2)c1 [Example 13-B, 2-(2-(3′-(Aminomethyl)-5′-fluoro-5-(phenylamino)-[1,1′-biphenyl]-3-ylcarboxamido)phenyl)acetic acid] | 9 |
| COc1ccc(C)c(Nc2cc(C(=O)Nc3ccccc3CC(=O)O)cc(-c3cc(F)cc(CN)c3)c2)c1 [Example 14-A] | 15 |
| NCc1cc(F)cc(-c2cc(NCc3ccncc3)cc(C(=O)Nc3ccccc3CC(=O)O)c2)c1 [Example 14-B] | 11 |
| Cn1ccc(CNc2cc(C(=O)Nc3ccccc3CC(=O)O)cc(-c3cc(F)cc(CN)c3)c2)n1 [Example 14-C] | 5 |
